Data published in patent US20090104145A1, “Mixtures of Anthranilamide Invertebrate Pest Control Agents” (priority 2004, published 2009).

Key:
Experiment in all cases: whole plant or invertebrate
Type in all cases: in vivo
[1] = test system: diamondback moth (Plutella xylostella); settings: for mortality at 10 ppm: rate 10 ppm; for mortality at 2 ppm: rate 2 ppm; for mortality at 0.08 ppm: rate 0.08 ppm; for mortality at 0.4 ppm: rate 0.4 ppm
Experimental: (§1) The pest control protection afforded by the mixtures or compositions is not limited, however, to these species. The analysis of synergism or antagonism between the mixtures or compositions was determined using Colby's equation. The average % mortality data for the test compounds alone were inserted into the Colby's equation. If the observed average % mortality was higher than “p”, the expected % mortality, the mixture or composition had synergistic effects. If the observed average % mortality was equal to or lower than the expected mortality, the mixture or composition either had no synergistic effect or an antagonistic effect. In these tests, Compound 1 is the compound of Formula 1.
For evaluating control of diamondback moth (Plutella xylostella), cabbage (var. Stonehead) plants were grown in Metromix potting soil in 10-cm pots in aluminum trays to test size (28 days, 3-4 full leaves) the plants were sprayed to the point of runoff using the turntable sprayer as described in Test I. Test compounds were formulated and sprayed on test plants as described for Test I. After drying for 2 hours, the treated leaves were excised and infested with one cabbage looper per cell and covered. The test units were placed on trays and put in a growth chamber at 25° C. and 60% relative humidity for 4 days.

[2] = test system: silverleaf whitefly (Bemisia argentifolii Bellows and Perring); settings: for % mortality (obs): Table 2B, compound alone
Experimental: as §1
For evaluating control of silverleaf whitefly (Bemisia argentifolii Bellows and Perring) through contact and/or systemic means, each test unit consisted of a small open container with a 12- to 14-day-old cotton plant inside. This was pre-infested by placing test units into cages infested with adult whiteflies so that oviposition on the cotton leaves could occur. The adults were removed from the plants with an air-blast nozzle, and the test units were capped. The test units were then stored 2 to 3 days before spraying.
(§2) Test compounds were formulated using a solution containing 10% acetone, 90% water and 300 ppm X-77® Spreader Lo-Foam Formula non-ionic surfactant containing alkylarylpolyoxyethylene, free fatty acids, glycols and isopropanol (Loveland Industries, Inc.) to provide the desired concentration in ppm. Formulated test solutions were then applied in 1 mL volumes through a SUJ2 atomizer nozzle with ⅛ JJ custom body (Spraying Systems Co.) positioned 1.27 cm (0.5 inches) above the top of each test unit.
The results for all experimental compositions in this test were replicated three times. After spraying of the formulated test composition, each test unit was allowed to dry for 1 hour and the cap removed. The test units were held for 13 days in a growth chamber at 28° C. and 50-70% relative humidity.

[3] = test system: western flower thrip (Frankliniella occidentalis Pergande)
Experimental: as §1, §2
For evaluating control of the western flower thrip (Frankliniella occidentalis Pergande) through contact and/or systemic means, each test unit consisted of a small open container with a 5- to 7-day-old bean (var. Soleil) plant inside.
Test solutions were formulated and sprayed with 3 replications as described for Test A. After spraying, the test units were allowed to dry for 1 hour, 22 to 27 adult thrips were added to each unit and then a black, screened cap was placed on top. The test units were held for 7 days at 25° C. and 45-55% relative humidity.

[4] = test system: cotton melon aphid (Aphis gossypii Glover)
Experimental: as §1, §2
For evaluating control of cotton melon aphid (Aphis gossypii Glover) through contact and/or systemic means, each test unit consisted of a small open container with a 6- to 7-day-old cotton plant inside. This was pre-infested by placing on a leaf of the test plant 30 to 40 aphids on a piece of leaf excised from a culture plant (cut-leaf method). The larvae moved onto the test plant as the leaf piece desiccated. After pre-infestation, the soil of the test unit was covered with a layer of sand.
Test compounds were formulated and sprayed as described for Test A. The applications were replicated three times. After spraying of the formulated test compounds, each test unit was allowed to dry for 1 hour and then a black, screened cap was placed on top. The test units were held for 6 days in a growth chamber at 19-21° C. and 50-70% relative humidity.

[5] = test system: green peach aphid (Myzus persicae Sulzer)
Experimental: as §1, §2
For evaluating control of green peach aphid (Myzus persicae Sulzer) through contact and/or systemic means, each test unit consisted of a small open container with a 12- to 15-day-old radish plant inside. This was pre-infested by placing on a leaf of the test plant 30 to 40 aphids on a piece of leaf excised from a culture plant (cut-leaf method). The larvae moved onto the test plant as the leaf piece desiccated. After pre-infestation, the soil of the test unit was covered with a layer of sand.
Test compounds were formulated and sprayed as described in Test A, replicated three times. After spraying of the formulated test compound, each test unit was allowed to dry for 1 hour and then a black, screened cap was placed on top. The test units were held for 6 days in a growth chamber at 19-21° C. and 50-70% relative humidity.

[6] = Plutella xylostella, in Brassica oleracea, read-out: % mortality (obs)
[7] = Plutella xylostella, in Brassica oleracea, rate 1000 ppm, read-out: % mortality (obs)
[8] = Plutella xylostella, in Brassica oleracea, rate 100 ppm, read-out: % mortality (obs)
[9] = Plutella xylostella, in Brassica oleracea, rate 1 ppm, read-out: % mortality (obs)

Cc1ccc(/N=C/N(C)/C=N/c2ccc(C)cc2C)c(C)c1 [Amitraz, amitraz]
% mortality ([1]; rate 10): 70% | % mortality ([1]; rate 100): 20% | % mortality ([1]; rate 1000): 50%

CC(C)N1C(=O)N(c2ccccc2)CS/C1=N\C(C)(C)C [Buprofezin, buprofezin]
mortality at 10 ppm [1, 6]: 30% | mortality at 1000 ppm [1, 7]: 60%

CCOP(=S)(OCC)Oc1nc(Cl)c(Cl)cc1Cl [Chlorpyrifos, chlorpyrifos]
mortality at 10 ppm [1, 6]: 80% | mortality at 100 ppm [1, 8]: 40% | mortality at 1000 ppm [1, 7]: 50%

CNC(=O)c1cc(C#N)cc(C)c1NC(=O)c1cc(Br)nn1-c1ncccc1Cl [Compund 1]
% mortality (obs) ([2]; rate 7 ppm): 30% | % mortality (obs) ([2]; rate 9 ppm): 53% | % mortality (obs) ([2]; rate 12 ppm): 71%

Nc1nc(N)nc(NC2CC2)n1 [Cyromazine, cyromazine]
mortality at 20 ppm ([1]; Plutella xylostella, in Brassica oleracea, rate 20 ppm, read-out: % mortality (obs)): 60% | mortality at 40 ppm ([1]; Plutella xylostella, in Brassica oleracea, rate 40 ppm, read-out: % mortality (obs)): 90% | mortality at 60 ppm ([1]; Plutella xylostella, in Brassica oleracea, rate 60 ppm, read-out: % mortality (obs)): 80%

CC1(C)[C@H](C(=O)O[C@H](C#N)c2cccc(Oc3ccccc3)c2)[C@@H]1C=C(Br)Br [Deltamethrin, deltamethrin]
mortality at 0.1 ppm ([1]; Plutella xylostella, in Brassica oleracea, rate 0.1 ppm, read-out: % mortality (obs)): 90% | mortality at 0.3 ppm ([1]; Plutella xylostella, in Brassica oleracea, rate 0.3 ppm, read-out: % mortality (obs)): 90% | mortality at 1 ppm [1, 9]: 90%

CCOC(=O)NCCOc1ccc(Oc2ccccc2)cc1 [Fenoxycarb, fenoxycarb]
mortality at 10 ppm [1, 6]: 90% | mortality at 100 ppm [1, 8]: 90% | mortality at 1000 ppm [1, 7]: 90%

N#CCNC(=O)c1cnccc1C(F)(F)F [Flonicamid, flonicamid]
% mortality ([1]; rate 1): 0% | % mortality ([1]; rate 15): 60% | % mortality ([1]; rate 1000): 30%

O=C(NC(=O)c1c(F)cccc1F)Nc1cc(Cl)c(OC(F)(F)C(F)F)c(Cl)c1 [Hexaflumuron, hexaflumuron]
mortality at 10 ppm ([3]; Frankliniella occidentalis, rate 10 ppm, read-out: % mortality (obs)): 20% | mortality at 3000 ppm ([3]; Frankliniella occidentalis, rate 3000 ppm, read-out: % mortality (obs)): 60% | mortality at 0.5 ppm ([1]; Plutella xylostella, in Brassica oleracea, rate 0.5 ppm, read-out: % mortality (obs)): 70% | mortality at 1 ppm [1, 9]: 30% | mortality at 2 ppm [1, 6]: 70%

CC1(C)CNC(=NN=C(/C=C/c2ccc(C(F)(F)F)cc2)/C=C/c2ccc(C(F)(F)F)cc2)NC1 [Hydramethylnon, hydramethylnon]
mortality at 0.01 ppm ([1]; Plutella xylostella, in Brassica oleracea, rate 0.01 ppm, read-out: % mortality (obs)): 70% | mortality at 0.05 ppm ([1]; Plutella xylostella, in Brassica oleracea, rate 0.05 ppm, read-out: % mortality (obs)): 50% | mortality at 0.2 ppm ([1]; Plutella xylostella, in Brassica oleracea, rate 0.2 ppm, read-out: % mortality (obs)): 60%

COC(=O)N(C(=O)N1CO[C@@]2(C(=O)OC)Cc3cc(Cl)ccc3C2=N1)c1ccc(OC(F)(F)F)cc1 [Indoxacarb, indoxacarb]
% mortality (obs) ([1]; rate 0.02 ppm): 80% | % mortality (obs) ([1]; rate 0.05 ppm): 40%

O=C(NC(=O)c1c(F)cccc1F)Nc1cc(Cl)c(OC(F)(F)C(F)C(F)(F)F)cc1Cl (centres unmarked) [Lufenuron, lufenuron]
mortality at 0.08 ppm [1, 6]: 80% | mortality at 0.4 ppm [1, 6]: 80% | mortality at 2 ppm [1, 6]: 90%

CNC(=O)ON=C(C)SC [Methomyl, methomyl]
% mortality ([1]; rate 30): 80% | % mortality ([1]; rate 40): 90% | % mortality ([1]; rate 50): 80%

COc1cccc(C(=O)NN(C(=O)c2cc(C)cc(C)c2)C(C)(C)C)c1C [Methoxyfenozide, methoxyfenozide]
mortality at 5 ppm ([4]; Aphis gossypii, rate 5 ppm, read-out: % mortality (obs)): 22% | mortality at 50 ppm ([4]; Aphis gossypii, rate 50 ppm, read-out: % mortality (obs)): 20% | mortality at 500 ppm ([4]; Aphis gossypii, rate 500 ppm, read-out: % mortality (obs)): 26% | mortality at 0.08 ppm [1, 6]: 90% | mortality at 0.4 ppm [1, 6]: 90% | mortality at 2 ppm [1, 6]: 90%

CCN(Cc1ccc(Cl)nc1)/C(=C/[N+](=O)[O-])NC [Nitenpyram, nitenpyram]
% mortality (obs) ([1]; rate 30 ppm): 90% | % mortality (obs) ([1]; rate 150 ppm): 90%

CNC(=O)O/N=C(\SC)C(=O)N(C)C [Oxamyl, oxamyl]
% mortality (obs) ([1]; rate 1 ppm): 60%

CCc1ccc(C(=O)NN(C(=O)c2cc(C)cc(C)c2)C(C)(C)C)cc1 [Tebufenozide, tebufenozide]
mortality at 150 ppm ([1]; Plutella xylostella, in Brassica oleracea, rate 150 ppm, read-out: % mortality (obs)): 90% | mortality at 200 ppm ([1]; Plutella xylostella, in Brassica oleracea, rate 200 ppm, read-out: % mortality (obs)): 90% | mortality at 300 ppm ([1]; Plutella xylostella, in Brassica oleracea, rate 300 ppm, read-out: % mortality (obs)): 90%

CS/C(C)=N\OC(=O)N(C)SN(C)C(=O)O/N=C(\C)SC [Thiodicarb, thiodicarb]
% mortality (obs) ([1]; rate 100 ppm): 90% | % mortality (obs) ([1]; rate 1000 ppm): 90% | % mortality (obs) ([1]; rate 3000 ppm): 90%

dieldrin
% mortality ([1]; rate 2): 90% | % mortality ([1]; rate 2.5): 100% | % mortality ([1]; rate 3): 100%

pyridaben
% mortality ([1]; rate 100): 100% | % mortality ([1]; rate 150): 80% | % mortality ([1]; rate 200): 100%

spinosad
% mortality ([1]; rate 10): 100% | % mortality ([1]; rate 100): 90% | % mortality ([1]; rate 1000): 100%

thiamethoxam
% Mortality (observed) ([2]; Thiamethoxam 15 ppm alone): 53% | % Mortality (observed) ([2]; Thiamethoxam 26 ppm alone): 65% | % Mortality (observed) ([3]; Thiamethoxam 1 ppm alone): 33% | % Mortality (observed) ([3]; Thiamethoxam 5.5 ppm alone): 43% | % Mortality (observed) ([3]; Thiamethoxam 29 ppm alone): 43% | % Mortality (observed) ([4]; Thiamethoxam 0.5 ppm): 22% | % Mortality (observed) ([4]; Thiamethoxam 0.8 ppm): 83% | % Mortality (observed) ([4]; Thiamethoxam 1 ppm): 91% | % Mortality (observed) ([5]; 0.2 ppm): 23% | % Mortality (observed) ([5]; 0.3 ppm): 23% | % Mortality (observed) ([5]; 0.5 ppm): 93% | % mortality ([1]; rate 30): 90% | % mortality ([1]; rate 40): 100% | % mortality ([1]; rate 50): 100%
